Biological target: ROCK2 (Homo sapiens, UniProt O75116)
Assay: ROCK2 kinase inhibition assay (Caliper LABCHIP, FITC peptide substrate)
Format: biochemical
Details: 5 μM ATP, 1.5 μM peptide substrate; value ranges
Outline: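 Dose-response curves gave IC50 from inhibition of peptide phosphorylation, measured by LabChip separation after EDTA stop. Reactions used 1.5 μM FITC-labelled peptide, 5 μM ATP, 20 mM HEPES pH 7.5 with MgCl2, Brij-35, DTT, and under 2% DMSO.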

Sequence of ROCK2 (O75116 whole entry, species assumed): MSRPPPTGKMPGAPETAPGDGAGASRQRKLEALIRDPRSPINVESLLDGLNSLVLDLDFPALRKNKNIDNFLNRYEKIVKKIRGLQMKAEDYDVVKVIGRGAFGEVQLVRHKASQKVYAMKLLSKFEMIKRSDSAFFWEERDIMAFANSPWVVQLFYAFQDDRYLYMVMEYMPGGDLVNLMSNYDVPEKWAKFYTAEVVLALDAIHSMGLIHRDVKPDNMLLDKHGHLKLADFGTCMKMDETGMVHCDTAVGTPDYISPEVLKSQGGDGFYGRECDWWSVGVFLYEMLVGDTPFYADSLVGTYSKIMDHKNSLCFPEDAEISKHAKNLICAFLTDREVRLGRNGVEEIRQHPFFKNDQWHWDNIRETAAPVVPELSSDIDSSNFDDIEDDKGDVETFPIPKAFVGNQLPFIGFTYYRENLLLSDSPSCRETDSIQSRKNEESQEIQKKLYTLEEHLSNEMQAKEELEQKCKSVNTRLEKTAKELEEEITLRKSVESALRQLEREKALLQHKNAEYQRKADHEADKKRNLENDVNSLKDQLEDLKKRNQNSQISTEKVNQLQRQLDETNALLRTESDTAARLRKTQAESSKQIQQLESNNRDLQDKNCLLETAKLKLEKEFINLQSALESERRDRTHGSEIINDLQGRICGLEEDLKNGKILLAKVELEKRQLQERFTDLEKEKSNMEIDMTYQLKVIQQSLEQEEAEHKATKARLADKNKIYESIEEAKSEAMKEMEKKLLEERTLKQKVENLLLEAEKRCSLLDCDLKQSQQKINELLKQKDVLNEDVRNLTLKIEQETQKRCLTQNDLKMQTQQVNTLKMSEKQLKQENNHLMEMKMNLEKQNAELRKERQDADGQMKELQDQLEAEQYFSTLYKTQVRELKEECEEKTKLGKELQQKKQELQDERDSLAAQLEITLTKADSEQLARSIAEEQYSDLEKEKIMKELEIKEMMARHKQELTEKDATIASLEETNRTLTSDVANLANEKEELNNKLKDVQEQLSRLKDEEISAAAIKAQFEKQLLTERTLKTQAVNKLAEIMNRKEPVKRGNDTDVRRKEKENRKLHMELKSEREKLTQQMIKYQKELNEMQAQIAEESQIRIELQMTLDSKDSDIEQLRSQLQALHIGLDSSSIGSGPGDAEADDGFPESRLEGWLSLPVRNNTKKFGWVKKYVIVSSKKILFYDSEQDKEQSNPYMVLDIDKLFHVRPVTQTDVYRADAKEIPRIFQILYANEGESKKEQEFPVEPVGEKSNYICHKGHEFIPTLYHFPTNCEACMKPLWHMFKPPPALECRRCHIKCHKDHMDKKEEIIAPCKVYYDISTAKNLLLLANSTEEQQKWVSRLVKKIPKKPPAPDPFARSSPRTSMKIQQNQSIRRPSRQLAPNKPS

IC50 | SMILES
20.1 to 200 nM | COc1cc(C(C)n2ccn(-c3ccc(-c4cn[nH]c4)c(OC)n3)c2=O)ccc1F (single isomer, unassigned) [Example 390, 1-(1-(4-fluoro-3-methoxyphenyl)ethyl)-3-(6-methoxy-5-(1H-pyrazol-4-yl)pyridin-2-yl)-1H-imidazol-2(3H)-one]
200 to 2000 nM | O=C1N(c2ccc(-c3cn[nH]c3)cc2)CCN1C(CO)c1ccccc1 (single isomer, unassigned) [Example 162, 1-(4-(1H-pyrazol-4-yl)phenyl)-3-(2-hydroxy-1-phenylethyl) imidazolidin-2-one]
200 to 2000 nM | COc1cccc(CN2C(=O)N(c3ccc(-c4cn[nH]c4)c(OC)c3)CC2CO)c1 (single isomer, unassigned) [Example 134, 4-(hydroxy-methyl)-1-(3-methoxy-4-(1H-pyrazol-4-yl)phenyl)-3-(3-methoxy-benzyl) imidazolidin-2-one]
2.1 to 20 nM | COc1nc(-n2ccn(Cc3cccnc3)c2=O)ccc1-c1cn[nH]c1 [Example 417, 1-(6-methoxy-5-(1H-pyrazol-4-yl)pyridin-2-yl)-3-(pyridin-3-ylmethyl)-1H-imidazol-2(3H)-one]
20.1 to 200 nM | COc1cc(F)ccc1CN1CCN(c2ccc(-c3cn[nH]c3)c(OC)n2)C1=O [Example 251, 1-(4-fluoro-2-methoxybenzyl)-3-(6-methoxy-5-(1H-pyrazol-4-yl)pyridin-2-yl)imidazolidin-2-one]
20.1 to 200 nM | COc1cccc([C@H](C)N2CCN(c3ccc(-c4cn[nH]c4)cc3)C2=O)c1 [Example 456, (S)-1-(4-(1H-pyrazol-4-yl)phenyl)-3-(1-(3-methoxyphenyl)ethyl)imidazolidin-2-one]
20.1 to 200 nM | CC(c1ccccc1)n1ccn(-c2ccc(-c3cn[nH]c3)cc2)c1=O (single isomer, unassigned; (-)) [Example 73, (−)-1-(4-(1H-pyrazol-4-yl)phenyl)-3-(1-phenylethyl)-1H-imidazol-2(3H)-one]
2.1 to 20 nM | COc1cccc(CN2CCN(c3ccc(-c4ccnc(F)c4)c(OC)n3)C2=O)c1 [Example 319, 1-(2′-fluoro-2-methoxy-[3,4′-bipyridin]-6-yl)-3-(3-methoxybenzyl)imidazolidin-2-one]
20.1 to 200 nM | COc1cc(CN2C(=O)N(c3ccc(-c4cn[nH]c4)cn3)C[C@H]2CO)ccc1F [Example 311, (S)-1-(5-(1H-Pyrazol-4-yl)pyridin-2-yl)-3-(4-fluoro-3-methoxybenzyl)-4-(hydroxymethyl)imidazolidin-2-one]
20.1 to 200 nM | COc1cccc(CN2CC(=O)N(c3ccc(-c4cn[nH]c4)cc3)C2=O)c1 [Example 80, 3-(4-(1H-Pyrazol-4-yl)phenyl)-1-(3-methoxybenzyl)imidazolidine-2,4-dione]
2.1 to 20 nM | O=c1n(Cc2cccc(F)c2)ccn1-c1ccc(-c2cn[nH]c2)cc1 [Example 321]
2.1 to 20 nM | COc1cc(F)cc(CN2C(=O)CN(c3ccc(-c4cn[nH]c4)c(OC)c3)C2=O)c1 [Example 101, 3-(3-fluoro-5-methoxybenzyl)-1-(3-methoxy-4-(1H-pyrazol-4-yl)phenyl) imidazolidine-2,4-dione]
20.1 to 200 nM | CNCC(c1cccc(OC)c1)N1CCN(c2ccc(-c3cn[nH]c3)cc2)C1=O (single isomer, unassigned) [Example 309, 1-(4-(1H-Pyrazol-4-yl)phenyl)-3-(1-(3-methoxyphenyl)-2-(methylamino)ethyl)imidazolidin-2-one]
< 2 nM | COc1cccc(CN2CCN(c3ccc(-c4cn[nH]c4)c(OC)n3)C2=O)c1 [Example 466, 1-(6-methoxy-5-(1H-pyrazol-4-yl)pyridin-2-yl)-3-(3-methoxybenzyl)imidazolidin-2-one]
200 to 2000 nM | CC(c1cccc(OCC2CC2)c1)N1CCN(c2ccc(-c3cn[nH]c3)cc2)C1=O (single isomer, unassigned) [Example 195, 1-(4-(1H-pyrazol-4-yl)-phenyl)-3-(1-(3-(cyclo-propyl-methoxy)-phenyl)-ethyl)-imidazolidin-2-one]
2.1 to 20 nM | COc1cc(F)cc(CN2C(=O)N(c3ccc(-c4cn[nH]c4)c(C)n3)CC2(C)C)c1 [Example 151, 3-(3-fluoro-5-methoxy-benzyl)-4,4-dimethyl-1-(6-methyl-5-(1H-pyrazol-4-yl)pyridin-2-yl)-imidazolidin-2-one]
20.1 to 200 nM | COc1cccc(C(CO)N2CCN(c3ccc(-c4cn[nH]c4)c(C)n3)C2=O)c1 (single isomer, unassigned) [Example 160, 1-(2-hydroxy-1-(3-methoxy-phenyl)ethyl)-3-(6-methyl-5-(1H-pyrazol-4-yl)pyridin-2-yl)imidazolidin-2-one]
200 to 2000 nM | O=C1N(CC2CCCCC2)CCN1c1ccc(-c2cn[nH]c2)cc1 [Example 211, 1-(4-(1H-pyrazol-4-yl)phenyl)-3-(cyclohexylmethyl)imidazolidin-2-one]
20.1 to 200 nM | O=C1N(Cc2ccccc2)CCN1c1ccc(-c2ccncc2F)cc1 [Example 52, 1-benzyl-3-(4-(3-fluoropyridin-4-yl)phenyl)imidazolidin-2-one]

IC50 | SMILES
20.1 to 200 nM | COc1cccc(Cn2ccn(-c3ccc(-c4cn[nH]c4)cc3)c2=O)c1F [Example 337, 1-(4-(1H-pyrazol-4-yl)phenyl)-3-(2-fluoro-3-methoxybenzyl)-1H-imidazol-2(3H)-one]
20.1 to 200 nM | COc1nc(N2CCN(CC3CCCO3)C2=O)ccc1-c1cn[nH]c1 (centres unmarked) [Example 254, 1-(6-methoxy-5-(1H-pyrazol-4-yl)pyridin-2-yl)-3-((tetrahydrofuran-2-yl)methyl)imidazolidin-2-one]
20.1 to 200 nM | COc1cccc(CN2CCN(c3cc(F)c(-c4cn[nH]c4)cc3F)C2=O)c1 [Example 447, 1-(2,5-difluoro-4-(1H-pyrazol-4-yl)phenyl)-3-(3-methoxybenzyl)imidazolidin-2-one]
2.1 to 20 nM | COc1cc(F)cc(Cn2ccn(-c3ccc(-c4cn[nH]c4)cn3)c2=O)c1 [Example 345, 1-(5-(1H-pyrazol-4-yl)pyridin-2-yl)-3-(3-fluoro-5-methoxybenzyl)-1H-imidazol-2(3H)-one]
200 to 2000 nM | COc1cccc(C(CO)N2CCN(c3ccc(-c4cn[nH]c4)cn3)C2=O)c1 (centres unmarked) [Example 442, 1-(5-(1H-pyrazol-4-yl)pyridin-2-yl)-3-(2-hydroxy-1-(3-methoxyphenyl)ethyl)imidazolidin-2-one]
20.1 to 200 nM | CNc1nc(N2CCN(Cc3ccc(F)c(OC)c3)C2=O)ccc1-c1cn[nH]c1 [Example 199, 1-(4-fluoro-3-methoxy-benzyl)-3-(6-(methyl-amino)-5-(1H-pyrazol-4-yl)pyridin-2-yl)-imidazolidin-2-one]
< 2 nM | COc1cccc([C@@H](C)N2CCN(c3ccc(-c4cn[nH]c4)cc3)C2=O)c1 [Example 122, (R)-1-(4-(1H-Pyrazol-4-yl)phenyl)-3-(1-(3-methoxyphenyl)ethyl)imidazolidin-2-one]
< 2 nM | COc1cc(F)cc(C(C)N2CCN(c3ccc(-c4cn[nH]c4)cc3)C2=O)c1 (single isomer, unassigned) [Example 197, 1-(4-(1H-pyrazol-4-yl)-phenyl)-3-(1-(3-fluoro-5-methoxy-phenyl)ethyl) imidazolidin-2-one]
2.1 to 20 nM | COc1cccc(Cn2ccn(-c3ccc(-c4ccnc5[nH]ccc45)cc3)c2=O)c1 [Example 322, 1-(4-(1H-pyrrolo[2,3-b]pyridin-4-yl)phenyl)-3-(3-methoxybenzyl)-1H-imidazol-2(3H)-one]
20.1 to 200 nM | COc1cccc([C@@H](C)N2CCN(c3ccc(-c4cn[nH]c4)cc3OC)C2=O)c1 [Example 14, (R)-1-(2-Methoxy-4-(1H-pyrazol-4-yl)phenyl)-3-(1-(3-methoxyphenyl)ethyl)imidazolidin-2-one]
< 2 nM | CCc1nc(-n2ccn(C(C)c3cccc(OC)c3)c2=O)ccc1-c1cn[nH]c1 (single isomer, unassigned) [Example 183, 1-(6-ethyl-5-(1H-pyrazol-4-yl)pyridin-2-yl)-3-(1-(3-methoxy-phenyl)-ethyl)-1H-imidazol-2(3H)-one]
20.1 to 200 nM | COc1cccc(C(C)N2CCN(c3ccc(-c4cn[nH]c4)c(OC)n3)C2=O)c1 (single isomer, unassigned) [Example 220, 1-(6-methoxy-5-(1H-pyrazol-4-yl)pyridin-2-yl)-3-(1-(3-methoxyphenyl)ethyl)imidazolidin-2-one]
2.1 to 20 nM | CCc1cc(N2CCN(Cc3cccc(OC)c3)C2=O)ccc1-c1cn[nH]c1 [Example 23, 1-(3-Ethyl-4-(1H-pyrazol-4-yl)phenyl)-3-(3-methoxybenzyl)imidazolidin-2-one]
200 to 2000 nM | CCc1cc(N2CCN(Cc3ccc(F)c(OC)c3)C2=O)ncc1-c1cn[nH]c1 [Example 194, 1-(4-ethyl-5-(1H-pyrazol-4-yl)pyridin-2-yl)-3-(4-fluoro-3-methoxy-benzyl) imidazolidin-2-one]
20.1 to 200 nM | CCc1cc(N2CCN(Cc3ccccc3)C2=O)ccc1-c1cn[nH]c1 [Example 26, 1-Benzyl-3-(3-ethyl-4-(1H-pyrazol-4-yl)phenyl)imidazolidin-2-one]
2.1 to 20 nM | COc1cccc(C(CCO)N2CCN(c3ccc(-c4cn[nH]c4)c(OC)c3)C2=O)c1 (centres unmarked) [Example 21, 1-(3-Hydroxy-1-(3-methoxyphenyl)propyl)-3-(3-methoxy-4-(1H-pyrazol-4-yl)phenyl)imidazolidin-2-one]
2.1 to 20 nM | CCc1nc(N2CCN(C(C)c3ccc(F)c(OC)c3)C2=O)ccc1-c1cn[nH]c1 (single isomer, unassigned) [Example 270, 1-(6-ethyl-5-(1H-pyrazol-4-yl)pyridin-2-yl)-3-(1-(4-fluoro-3-methoxyphenyl)ethyl)imidazolidin-2-one]
2.1 to 20 nM | COc1cccc(CN2CCN(c3cc(OC)c(-c4cn[nH]c4)cn3)C2=O)c1 [Example 423, 1-(4-Methoxy-5-(1H-pyrazol-4-yl)pyridin-2-yl)-3-(3-methoxybenzyl)imidazolidin-2-one]

SMILES | IC50
CC(C)COc1cccc(CN2CCN(c3ccc(-c4cn[nH]c4)c(F)c3)C2=O)c1 [Example 443, 1-(3-fluoro-4-(1H-pyrazol-4-yl)phenyl)-3-(3-isobutoxybenzyl)imidazolidin-2-one] | 2.1 to 20 nM

From US10123993B2, “Cyclic ureas as inhibitors of rock” (BRISTOL-MYERS SQUIBB COMPANY, priority 2015, dated 2018)
